Results from the supplement of paper PMC10307832.

Legend:
Experiment in all cases: relative viability (nuclei count vs DMSO), 5 days (fraction); higher = more cells survive
[1] = compound: CC1=CC(=NN1)NC2=CC(=NC(=N2)/C=C/C3=CC=CC=C3)N4CCN(CC4)C + Cc1cc(Nc2cc(N3CCN(C)CC3)nc(Sc3ccc(NC(=O)C4CC4)cc3)n2)n[nH]1 [Tozasertib] (partner 0.1 µM)
How it was run: (§1)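 Relative viability was taken as the ratio of nuclei in treated wells to nuclei in vehicle wells. Lung cancer cell lines in 1536-well plates received compounds by pin tool one day after seeding, either one drug alone or a fixed anchor-drug dose plus five library-drug doses (not always all listed) in √10 steps. Nuclei were counted on 4× images after 5 days of treatment, and values are medians of duplicate plates.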

[2] = compound: COC1=CC(c2cc3ccccc3[nH]2)=N/C1=C\c1[nH]c(C)cc1C [Obatoclax] + Cc1nc(Nc2ncc(C(=O)Nc3c(C)cccc3Cl)s2)cc(N2CCN(CCO)CC2)n1 [Dasatinib] (partner 0.075 µM)
How it was run: as §1

[3] = compound: CC(C)C[C@H](NC(=O)[C@H](Cc1ccccc1)NC(=O)c1cnccn1)B(O)O [Bortezomib] + Nc1nc2[nH]cc(CCc3ccc(C(=O)N[C@@H](CCC(=O)O)C(=O)O)cc3)c2c(=O)[nH]1 [Pemetrexed] (partner 0.2 µM)
How it was run: as §1

[4] = compound: CC1=CC(=NN1)NC2=CC(=NC(=N2)/C=C/C3=CC=CC=C3)N4CCN(CC4)C + Nc1nc2[nH]cc(CCc3ccc(C(=O)N[C@@H](CCC(=O)O)C(=O)O)cc3)c2c(=O)[nH]1 [Pemetrexed] (partner 0.2 µM)
How it was run: as §1

Cell Line	relative viability ([1]; first compound 0.08 µM)	relative viability ([1]; first compound 0.253 µM)	relative viability ([1]; first compound 0.8 µM)	relative viability ([1]; first compound 2.53 µM)	relative viability ([1]; first compound 8 µM)	relative viability ([2]; first compound 0.01 µM)	relative viability ([2]; first compound 0.03162 µM)	relative viability ([2]; first compound 0.1 µM)	relative viability ([2]; first compound 0.3162 µM)	relative viability ([2]; first compound 1 µM)	relative viability ([3]; first compound 0.0002 µM)	relative viability ([3]; first compound 0.000632 µM)	relative viability ([3]; first compound 0.002 µM)	relative viability ([3]; first compound 0.006325 µM)	relative viability ([3]; first compound 0.02 µM)	relative viability ([4]; first compound 0.08 µM)	relative viability ([4]; first compound 0.253 µM)	relative viability ([4]; first compound 0.8 µM)	relative viability ([4]; first compound 2.53 µM)	relative viability ([4]; first compound 8 µM)
NCI-H2085	0.823	0.749	0.629	0.424	0.433	0.256	0.205	0.508	0.256	0.226	0.827	0.873	0.991	0.403	0.206	0.994	0.982	0.952	0.325	0.258
NCI-H2087	0.229	0.238	0.195	0.162	0.11	0.837	0.747	0.723	0.361	0.135	0.626	0.761	0.63	0.0855	0.0402	0.63	0.652	0.652	0.566	0.162
NCI-H2126	0.844	0.907	0.837	0.501	0.236	0.675	0.538	0.524	0.613	0.536	0.648	0.695	0.707	0.61	0.536	0.696	0.649	0.633	0.569	0.426
NCI-H2170	0.72	0.656	0.699	0.38	0.164	0.626	0.617	0.528	0.529	0.677	0.271	0.256	0.286	0.263	0.136	0.266	0.246	0.248	0.193	0.181
